Measurements taken from publication PMC7822474, “Repurposing the McoTI-II Rigid Molecular Scaffold in to Inhibitor of ‘Papain Superfamily’ Cysteine Proteases” (Pharmaceuticals, 2020).
Where no end group is shown, it is not given here.

Tests used:
trypsin [1] = test: Inhibition of trypsin by recombinant McoTI-II (ZFR-AMC substrate); format: biochemical
trypsin [2] = target: trypsin
trypsin [3] = conditions: cited from earlier work
From the text: McoTI-II is a stable cyclic peptide found in seeds of the plant Momordica cochinchinensis. It belongs to the trypsin inhibitor subfamily of cyclotides and has been the most preferred framework for grafting and engineering novel biological activities. […] A range of substitutions in the trypsin inhibitory reactive site (loop 1) and the P1 residue have been used to develop a series of McoTI-I analogs with specificity towards alternate proteases with moderate affinity. […] Therefore, we expect that a modification involving a backbone cyclization would lead to further improvement in the e ...

papain [4] = test: Proteolytic activity assay, BSA digestion by papain on SDS-PAGE; format: biochemical; conditions: BSA 1.0 mg/mL, 0.1 M sodium acetate pH 5.5, 0.1% SDS, E:S 1:10, 40 °C, 8 min, preincubated with papain
Protocol: The protein substrate, BSA, at a concentration of 1.0 mg/mL in 0.1 M sodium acetate buffer (pH 5.5) containing 0.1% SDS was incubated with papain, papain preincubated with E-64, and papain preincubated with Mco-CPI protein. The papain enzyme used was pre-activated with 2 mM dithiothreitol. The ratio of enzyme to the substrate (E:S) was maintained at 1:10. The digestion was allowed to be carried at 40 °C for 8 min. This method was adapted from Zucker et al., 1985 [59]. The degradation products of each reaction were analysed on 12% SDS-PAGE gel.

papain [5] = conditions: E-64 and its derivatives; cited from earlier work

## McoTI-II recombinant protein: McoTI-II protein with tags, recombinantly expressed as starting control (SGSDGGVCPKILKKCRRDSDCPGACICRGNGYCG; ends and bridges not checked; also: with tags (recombinant); UniProt P82409 1-34, looked up)
Trypsin [1]; Supplementary Figure S6E
  % trypsin inhibition, concentration dependence (in words): An increase in % trypsin inhibition
Trypsin [1]; ZFR-AMC substrate, 50 mM Tris-HCl pH 8.0, 50 mM NaCl, 5 mM CaCl2, three technical replicates, read-out: IC50 against trypsin
  IC50: 2120 nM

## McoTI-II (Momordica cochinchinensis trypsin inhibitor-II), recombinant protein with tags (from UniProt P82409 1-34) (natural protein)
Trypsin [2]
  inhibition of trypsin activity on ZFR-AMC (fluorescence), 50 mM Tris-HCl pH 8.0, 50 mM NaCl, 5 mM CaCl2: 2.12 µM

## McoTI-II: stable cyclic peptide found in seeds of the plant Momordica cochinchinensis (cyclo(SGSDGGVCPKILKKCRRDSDCPGACICRGNGYCG); disulfide (positions not given here); ends not checked; also: three disulfides, pairing not given here; UniProt P82409 1-34, looked up)
Trypsin [3]; McoTI-II purified from plant sources or chemically synthesized as a cyclic molecule
  trypsin inhibition range (in words): sub-nM range
Trypsin [3]; natural McoTI-II
  trypsin inhibitory activity (in words): potent (sub-nM)

## CC(C)C[C@H](NC(=O)[C@H]1O[C@@H]1C(=O)O)C(=O)NCCCCN=C(N)N [E-64]
Papain [4]
  inhibition of papain proteolytic activity on BSA (in words): completely inhibit the proteolytic activity of papain with no digestion products observed on the gel
Papain [5]
  IC50 against papain (in words): nanomolar range
